Experiment [1] has as its target T1, human TLR2 (Pam3CSK4, TLR1/2 agonist) in HEK-Blue hTLR2 cells (Homo sapiens, UniProt O60603).
T1 construct: host or cells: HEK-Blue hTLR2 (HEK-293)
Nature of the experiment: HEK-Blue hTLR2 antagonism assay (SEAP reporter) with Pam3CSK4 as agonist. The experiment is classed as cell-based. The following applies: 2 h compound pre-incubation, approx. 3×EC50 Pam3CSK4, 18 h, SEAP OD 655 nm, background subtracted. As to the method: (§1) Synthetic diacylated lipoprotein (Pam2CSK4, TLR2/6 agonist) and synthetic triacylated lipoprotein (Pam3CSK4, TLR1/2 agonist) were obtained from InvivoGen and were dissolved in endotoxin-free water to a concentration 1 mg/mL, vortexed until complete solubilization, and stored in aliquots at −20° C. Prior to addition to cells, an aliquot of the dissolved ligand was vortexed shortly and then was diluted in medium to 25 ng/mL Pam2CSK4 or 1000 ng/mL Pam3CSK4. The EC50 of the agonists for each assay run was determined by using 3-fold dilutions of each agonist from the following starting concentrations: 5 ng/mL for Pam2CSK4, and 200 ng/mL for Pam3CSK4.
(§2) Test compounds were solubilized fresh to 10-20 mM stocks in DMSO and sonicated for 5-10 minutes in a water bath sonicator. Serial dilutions were prepared in DMSO, and then diluted in medium. The final concentration of DMSO used in the assay was 1%.
(§3) HEK-Blue hTLR2 reporter cells (InvivoGen) are HEK-293 cells stably expressing both the human TLR2 gene and a secreted embryonic alkaline phosphatase (SEAP) reporter construct downstream of NFκB promotor sites. HEK-Blue hTLR2 reporters were cultured according to manufacturer's protocol using Dulbecco's Modified Eagle Medium (DMEM; Gibco) containing 1× GlutaMax (Gibco), 10% heat-inactivated Fetal Bovine Serum (Gibco), Pen-Strep (50 U/mL penicillin, 50 μg/mL streptomycin, Gibco), 100 μg/mL Normocin (InvivoGen), and the selective antibiotic, 1× HEK-Blue Selection (InvivoGen). Quanti-Blue reagent (InvivoGen) for detection and quantification of secreted alkaline phosphatase was dissolved in 100 mL of endotoxin-free water, warmed to 37° C. for 30 minutes and then filtered using a 0.2 μm membrane.
(§4) On day 1, 50 μL of each test compound dilution in duplicates or a vehicle control was added to each well of a 96-well plate followed by addition of 150 μL of HEK-Blue hTLR2 cell suspension (1×10^5 cells/well) and incubated at 37° C./5% CO2 for 2 h. Next, 50 μL of an approximate 3×EC50 concentration of each agonist (Pam2CSK4 or Pam3CSK4) was added to the wells containing test compounds or the vehicle control. The plates were then incubated at 37° C./5% CO2 for 18 h. For each assay run, non-treated HEK-Blue hTLR2 cells were treated with serial dilutions of agonists to determine EC50 values for the respective run.
(§5) On day 2, secreted alkaline phosphatase (SEAP) activity was detected in cell culture supernatants. In brief, 20 μL was collected from each well and transferred to a 96-well plate. Next, 200 μL of Quanti-Blue detection reagent was added to each well. Plates were incubated at room temperature for 15 min and SEAP activity was assessed by spectrophotometer OD reading at 655 nm. […] The activities of the compounds against Pam2CSK4 and Pam3CSK4 are presented as IC50 values for the response from cells treated with agonists with the background signal subtracted.

For experiment [2], the target named is T2, human TLR2 (Pam2CSK4, TLR2/6 agonist) in HEK-Blue hTLR2 cells (Homo sapiens, UniProt O60603).
T2 construct: host or cells: HEK-Blue hTLR2 (HEK-293)
T2 sequence (O60603 19-784 limits assumed): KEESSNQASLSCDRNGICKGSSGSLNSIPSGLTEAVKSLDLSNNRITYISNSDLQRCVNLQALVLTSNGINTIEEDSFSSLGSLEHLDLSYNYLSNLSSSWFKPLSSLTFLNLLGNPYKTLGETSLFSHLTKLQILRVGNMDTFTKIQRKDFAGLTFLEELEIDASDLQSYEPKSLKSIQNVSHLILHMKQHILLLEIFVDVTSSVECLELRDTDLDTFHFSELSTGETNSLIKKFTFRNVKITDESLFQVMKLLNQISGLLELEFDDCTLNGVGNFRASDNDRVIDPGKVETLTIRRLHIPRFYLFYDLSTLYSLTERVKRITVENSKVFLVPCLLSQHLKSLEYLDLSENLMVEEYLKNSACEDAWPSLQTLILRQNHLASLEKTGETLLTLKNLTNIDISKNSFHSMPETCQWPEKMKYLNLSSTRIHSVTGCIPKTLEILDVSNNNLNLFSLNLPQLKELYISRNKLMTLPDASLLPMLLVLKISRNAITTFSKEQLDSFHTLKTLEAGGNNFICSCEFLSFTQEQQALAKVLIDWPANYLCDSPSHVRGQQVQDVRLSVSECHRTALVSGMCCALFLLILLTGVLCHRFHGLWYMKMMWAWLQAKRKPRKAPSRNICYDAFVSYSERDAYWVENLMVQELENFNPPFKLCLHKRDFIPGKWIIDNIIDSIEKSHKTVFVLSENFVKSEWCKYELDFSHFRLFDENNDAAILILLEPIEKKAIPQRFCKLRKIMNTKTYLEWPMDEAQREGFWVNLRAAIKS
Put plainly: HEK-Blue hTLR2 antagonism assay (SEAP reporter) with Pam2CSK4 as agonist. The following applies: 2 h compound pre-incubation, approx. 3×EC50 Pam2CSK4, 18 h, SEAP OD 655 nm, background subtracted. The class given is cell-based. As to the method: as §1, §2, §3, §4, §5

T1 sequence (O60603 19-784 limits assumed): as above

A word on the IC50: it is the concentration that inhibits the measured activity by half. For `CCN(CC)c1ccc(/C=C/c2cc(C=O)c(O)c(OC)c2)cc1` [compound 63, (E)-5-(4-(diethylamino)styryl)-2-hydroxy-3-methoxybenzaldehyde], the IC50 stood at 0.6 µM in experiment [1] and 1.5 µM in experiment [2].

On to `C[N+]1([O-])CCN(/N=C/c2cc(/C=C/c3ccc(N4CCCC4)cc3)cc(F)c2O)CC1` [compound 85, 4-(((E)-3-fluoro-2-hydroxy-5-((E)-4-(pyrrolidin-1-yl)styryl)benzylidene)amino)-1-methylpiperazine 1-oxide], for which the half-maximal inhibitory concentration (IC50) in experiment [1] came out at 1.9 µM; in experiment [2], 4.5 µM.

For the compound `Oc1c(F)cc(/C=C/c2ccc(N3CCCC3)cc2)cc1/C=N/Oc1ccccc1` [compound 82, (E)-3-fluoro-2-hydroxy-5-((E)-4-(pyrrolidin-1-yl)styryl)benzaldehyde O-phenyl oxime], the IC50 in experiment [1] and in experiment [2] was 2.1 µM each time.

As to `O=Cc1cc(/C=C/c2ccc(N3CCCC3)nc2)cc(F)c1O` [compound 86, (E)-3-fluoro-2-hydroxy-5-(2-(6-(pyrrolidin-1-yl)pyridin-3-yl)vinyl)benzaldehyde], the IC50 in experiment [1] was determined as 4.1 µM; in experiment [2], 3.8 µM.

As to `CCN(CC)c1ccc(/C=C/c2cc(F)c(O)c(C=O)c2)cc1` [compound 64, (E)-5-(4-(diethylamino)styryl)-3-fluoro-2-hydroxybenzaldehyde], the IC50 in experiment [1] came out at 0.5 µM; in experiment [2], 1.1 µM.

For the compound `COc1cc(/C=C/c2ccccc2)cc(C=O)c1O` [compound 4, (E)-2-hydroxy-3-methoxy-5-styrylbenzaldehyde], the IC50 in experiment [1] worked out at 4 µM; in experiment [2] it was 5.5 µM.

Consider `COCCOc1ccc(/C=C/c2cc(F)c(O)c(C=O)c2)cc1` [compound 55, (E)-3-fluoro-2-hydroxy-5-(4-(2-methoxyethoxy)styryl)benzaldehyde], for which the IC50 in experiment [1] worked out at 4.1 µM; in experiment [2], 3.6 µM.

With `O=Cc1c(O)cc(/C=C/c2ccc(N3CCCC3)cc2)cc1F` [compound 53, (E)-2-fluoro-6-hydroxy-4-(4-(pyrrolidin-1-yl)styryl)benzaldehyde], the results for the 50% inhibitory concentration (IC50) in experiment [1] and in experiment [2] were 1.5 µM and 1.3 µM, respectively.

As for `COc1cc(/C=C/c2ccc(-c3ccccc3)cc2)cc(C=O)c1O` [compound 36, (E)-5-(2-([1,1′-biphenyl]-4-yl)vinyl)-2-hydroxy-3-methoxybenzaldehyde], the IC50 in experiment [1] came out at 0.4 µM; in experiment [2], 0.6 µM.

On to `O=Cc1cc(/C=C/c2ccc(N3CCCC3)cc2)cc(F)c1O` [Example 49b, (E)-3-fluoro-2-hydroxy-5-(4-(pyrrolidin-1-yl)styryl)benzaldehyde], for which the IC50 in experiment [1] and in experiment [2] was 0.8 µM throughout.

Turning to `COc1cc(-c2cc3c(s2)CCN(CC2CC2)C3)cc(C=O)c1O` [compound 17, 5-(5-(cyclopropylmethyl)-4,5,6,7-tetrahydrothieno[3,2-c]pyridin-2-yl)-2-hydroxy-3-methoxybenzaldehyde], the IC50 worked out at 2.1 µM in experiment [1] and 2 µM in experiment [2].

For `O=Cc1cc(/C=C/c2ccc(N3CCCCC3)cc2)cc(F)c1O` [compound 70, (E)-3-fluoro-2-hydroxy-5-(4-(piperidin-1-yl)styryl)benzaldehyde], the results for the IC50 in experiment [1] and in experiment [2] were 0.4 µM and 0.9 µM, respectively.

Take `OCc1cc(/C=C/c2ccc(N3CCCC3)cc2)cc(F)c1O` [compound 90, (E)-2-fluoro-6-(hydroxymethyl)-4-(4-(pyrrolidin-1-yl)styryl)phenol]: the IC50 was 8.5 µM in experiment [1] and 5.4 µM in experiment [2].

Take `COc1cc(/C=C/c2ccc3ccccc3c2)cc(C=O)c1O` [compound 32, (E)-2-hydroxy-3-methoxy-5-(2-(naphthalen-2-yl)vinyl)benzaldehyde]: the IC50 in experiment [1] was found to be 1 µM; in experiment [2], 1.1 µM.

With `COc1cc(/C=C/c2cccc(C(F)(F)F)c2)cc(C=O)c1O` [compound 2, (E)-2-hydroxy-3-methoxy-5-(3-(trifluoromethyl)styryl)benzaldehyde], the results for the IC50 in experiment [1] and in experiment [2] were 1.4 µM and 5.3 µM, respectively.

`O=C(N/N=C/c1cc(/C=C/c2ccc(N3CCCC3)cc2)cc(F)c1O)c1ccccc1` [compound 80, N′-((E)-3-fluoro-2-hydroxy-5-((E)-4-(pyrrolidin-1-yl)styryl)benzylidene)benzohydrazide]: the IC50 was determined as 14.8 µM in experiment [1] and 28.4 µM in experiment [2].

As to `COc1cc(/C=C/c2cc(F)cc(F)c2)cc(C=O)c1O` [compound 5, (E)-5-(3,5-difluorostyryl)-2-hydroxy-3-methoxybenzaldehyde], the IC50 in experiment [1] is 3.2 µM; in experiment [2], 4 µM.

As to `COc1cc(/C=C/C(=O)N2CCOCC2)cc(C=O)c1O` [compound 35, (E)-2-hydroxy-3-methoxy-5-(3-morpholino-3-oxoprop-1-en-1-yl)benzaldehyde], the IC50 in experiment [1] was determined as 62.6 µM; in experiment [2] it was 68.5 µM.

For the compound `COc1cc(/C=C/c2cccc(N3CCOCC3)c2)cc(C=O)c1O` [compound 44, (E)-2-hydroxy-3-methoxy-5-(3-morpholinostyryl)benzaldehyde], the IC50 in experiment [1] was 3.2 µM; in experiment [2] it was 3 µM.

In the case of `COCCOc1ccc(/C=C/c2cc(C=O)c(O)c(OC)c2)cc1` [compound 54, (E)-2-hydroxy-3-methoxy-5-(4-(2-methoxyethoxy)styryl)benzaldehyde], the IC50 in experiment [1] turned out to be 4.6 µM; in experiment [2], 4 µM.

Regarding `COc1cc(/C=C\c2ccc(N3CCCC3)cc2)cc(C=O)c1O` [compound 51, (Z)-2-hydroxy-3-methoxy-5-(4-(pyrrolidin-1-yl)styryl)benzaldehyde], the IC50 in experiment [1] came to 70.1 µM; in experiment [2], 71.3 µM.

As for `COc1cc(/C=C/c2cccc(N3CCCC3)c2)cc(C=O)c1O` [compound 46, (E)-2-hydroxy-3-methoxy-5-(3-(pyrrolidin-1-yl)styryl)benzaldehyde], the values for the IC50 in experiment [1] and in experiment [2] were 1 µM and 1.4 µM, respectively.

On to `COc1cc(/C=C/c2ccc(N3CCOCC3)cc2)cc(C=O)c1O` [compound 40, (E)-2-hydroxy-3-methoxy-5-(4-morpholinostyryl)benzaldehyde], for which the IC50 in experiment [1] amounted to 2.5 µM; in experiment [2] it was 2.3 µM.

Turning to `COc1ccc(/C=C/c2cc(F)c(O)c(C=O)c2)cc1` [compound 10, (E)-3-fluoro-2-hydroxy-5-(4-methoxystyryl)benzaldehyde], the IC50 in experiment [1] amounted to 3.8 µM; in experiment [2], 4.6 µM.

In the case of `COc1cc(/C=C/c2ccccn2)cc(C=O)c1O` [compound 23, (E)-2-hydroxy-3-methoxy-5-(2-(pyridin-2-yl)vinyl)benzaldehyde], the figures for the 50% inhibitory concentration (IC50) in experiment [1] and in experiment [2] were 11.5 µM and 11.8 µM, respectively.

Regarding `Oc1c(F)cc(/C=C/c2ccc(N3CCCC3)cc2)cc1/C=N/N1CCN(C2CC2)CC1` [compound 92, 2-((E)-((4-cyclopropylpiperazin-1-yl)imino)methyl)-6-fluoro-4-((E)-4-(pyrrolidin-1-yl)styryl)phenol], the IC50 in experiment [1] turned out to be 32.3 µM; in experiment [2] it was 26.6 µM.

As for `O=Cc1cc(/C=C/c2ccc3c(c2)OCCO3)cc(F)c1O` [compound 39, (E)-5-(2-(2,3-dihydrobenzo[b][1,4]dioxin-6-yl)vinyl)-3-fluoro-2-hydroxybenzaldehyde], the IC50 was found to be 15.4 µM in experiment [1] and 12.8 µM in experiment [2].

On to `COc1cc(/C=C/c2ccncc2)cc(C=O)c1O` [compound 25, (E)-2-hydroxy-3-methoxy-5-(2-(pyridin-4-yl)vinyl)benzaldehyde], for which the IC50 in experiment [1] is 16.4 µM; in experiment [2], 15.2 µM.

With `O=Cc1cc(/C=C/c2cccc(C(F)(F)F)c2)cc(F)c1O` [compound 11, (E)-3-fluoro-2-hydroxy-5-(3-(trifluoromethyl)styryl)benzaldehyde], the IC50 in experiment [1] was 1 µM; in experiment [2] it was 1.1 µM.

Source of the values: patent publication US11345713B2, “Compounds as modulators of TLR2 signaling” (Neuropore Therapies, inc., priority 2018, dated 2022).
